Results reported in patent US10206944B2, “Chondroitin for use in medicine” (ALTERGON S.A., priority 2012, dated 2019).

Legend:
Assay type in all cases: cell-based
[1] = test system: primary cultures of human chondrocytes; assay: Chondrocyte proliferation test (time-lapse videomicroscopy); conditions: 1% w/v
From the text: Primary cultures of human chondrocytes isolated from healthy human cartilage samples obtained during rhinoplasty operations were used as model system. The tissue fragments just removed in the operating theatre were immersed in an 0.9% w/w NaCl saline solution and rapidly transferred to the laboratory for extraction of chondrocytes. Operating in sterile conditions under laminar-flow hood, the tissue sample was transferred to a petri dish where it was cut into small pieces using sterile tweezers and scalpels. The pieces of cartilage were then immersed in 0.01M phosphate buffer pH 7.4 (PBS) containing type 1 collagenase (3 mg/mL), dispase (4 mg/mL) and gentamicin (5 μL/mL of an 80 mg/mL solution) to ensure sterility during enzymatic digestion. The pieces were left to incubate overnight in a Falcon tube at 37° C., under stirring. After 16-18 h the solution was filtered through a 70 μm filter, transferring the parts adhering to the Falcon tube onto the filter and washing with 7-8 mL of DMEM 10% FBS. The filtrate was centrifuged at 1,500 rpm for 7 min, the supernatant was removed and the pellet was suspended in 10 mL of DMEM 10% FBS containing fungizone (5 μL/mL of an 80 mg/mL solution) and gentamicin (5 μL/mL of an 80 mg/mL solution). The cell suspension thus obtained was plated in a 25 cm^2 flask and incubated at 37° C. in a 5% CO2 atmosphere, with changes of medium every 2 or 3 days until complete confluency of the cell culture. The cells, which have the characteristic appearance of chondrocytes (small swollen cells with a slightly elongated shape), were detached from the base of the flask, counted and incubated again in fresh medium. Starting with 0.4 g of cartilage, about 2*10^6 cells were generally obtained in the second growth phase. Knowledge of the number of growth cycles to which the culture has previously been subjected is of crucial importance for primary cells; especially in the case of chondrocytes a cell differentiation process is observed wherein, as the growth phases proceed, the cells increasingly present an appearance morphologically similar to fibroblasts. For this reason the entire study is conducted with primary chondrocyte cultures at the 2nd-4th growth phase.
The effect of chondroitin on chondrocyte proliferation was evaluated with time-lapse videomicroscopy, as described in Example 1. The study was performed comparatively with chondrocytes stimulated with chondroitin sulphate, using non-stimulated chondrocytes as control system. 20*10^3 cells were seeded per well of a 24-well multiwell plate. The cells were treated with chondroitin or chondroitin sulphate with an endotoxin content ≤0.1 EU/mg at a concentration of 1% w/v in DMEM 10% FBS; in the controls, the cells were seeded in DMEM 10% FBS. The experiments were conducted in triplicate and analysed for a total time ranging between 96 and 120 h. Image analysis, conducted with Image Pro-plus 5.1 analysis software, allowed a precise number of cells to be obtained with a manual count at times pre-set by the operator, in order to construct a growth curve over time. The data analysis indicates (Table 2) that the growth of the cells treated with chondroitin was better than that of the untreated cells and the cells treated with chondroitin sulphate.

Collagen Type II = assay: Real-Time PCR gene expression in human chondrocytes: type II collagen; conditions: 1% w/v, ratio to untreated control
Protocol: To evaluate the biological effects of chondroitin on human chondrocyte cultures, the expression of a set of genes considered key to establishing the phenotype, and suitable markers for evaluating the quality of the tissue generated, was determined. The study was conducted on chondrocytes prepared from human cartilage, as reported in Example 2, the cells being grown in the presence of chondroitin or chondroitin sulphate. Using a standard procedure, 5*10^4 cells per well were seeded in a 24-well multiwell plate. The chondrocytes were grown in DMEM containing 1% w/v of chondroitin or chondroitin sulphate (endotoxin content ≤0.1 EU/mg). The cells were stimulated for 4, 7 and 10 days (Ishak et al., International J. of Pediatric Otorhinolaryngology, 2011, 75: 835-840), after which the RNA was extracted with Trizol Reagent, as described in the kit manual (Life Technologies Ltd, Milan, Italy). A qualitative morphological analysis of the cell culture was also conducted at the various times, in parallel with RNA extraction, by observing the corresponding samples at 4, 7 and 10 days under the optical microscope. The cells seeded at the three different times were observed under the microscope, and the images that best represented the cell growth conditions were acquired using a time-lapse videomicroscopy workstation. After RNA extraction, reverse transcription was performed with a total of 1 μg RNA and then with amplification by Real-Time PCR of genes which are specific markers for chondrocytes (Table 3).
Genes connected with matrix production, such as aggrecan, type I collagen, type II collagen and the Sox9 gene, the expression of which is closely correlated with the expression of type II collagen, were analysed as specific markers for differentiation and characterisation of chondrocytes. (Akiyama H., Mod Rheumatol., 2008, 18(3): 213-9; Yang et al., J. of Orthopaedic Res. 2011).
The gene expression of said markers on human chondrocytes cultured in basic medium (control) and with chondroitin treatment (C) or chondroitin sulphate treatment (CS) was analysed on cell cultures in the second and third growth phases.
The results of the gene expression analysis were reported as the average of at least 3 independent experiments for tests conducted in the presence of C or CS, on cells in phases 2 and 3.

type II collagen = assay: Phenotype analysis with immunohistochemical tests on human chondrocytes
Protocol: The evaluation of the chondrocyte phenotype of fresh cells extracted from human cartilage tissue samples and after 4, 7 and 10 days' growth in medium containing chondroitin or chondroitin sulphate was conducted with immunohistochemical tests, using the Envision+(DaKo) kit which uses an antibody for type II collagen, considered to be a specific marker for chondrocyte differentiation (Stokes et al., Biochem. J., 2001, 360:461-470).

Row | Substance | Number of chondrocytes ([1]; time 0 h) | Number of chondrocytes ([1]; time 20 h) | Number of chondrocytes ([1]; time 40 h) | Number of chondrocytes ([1]; time 60 h) | Number of chondrocytes ([1]; time 80 h) | Number of chondrocytes ([1]; time 100 h) | Fold Expression, Collagen Type II (Collagen Type II; phase II, 4 g) | Fold Expression, Collagen Type II (Collagen Type II; phase II, 7 g) | Fold Expression, Collagen Type II (Collagen Type II; phase II, 10 g) | Fold Expression, Collagen Type II (Collagen Type II; phase III, 4 g) | Fold Expression, Collagen Type II (Collagen Type II; phase III, 7 g) | Fold Expression, Collagen Type II (Collagen Type II; phase III, 10 g) | positivity to type II collagen (type II collagen; after 4 days' treatment) | positivity to type II collagen (type II collagen; longer times (7 and 10 days))
1 | chondroitin | 7.0 ± 0.7 Cells × 10^4 | 10.2 ± 0.9 Cells × 10^4 | 15.3 ± 1.3 Cells × 10^4 | 22.0 ± 1.8 Cells × 10^4 | 27.0 ± 2.0 Cells × 10^4 | 32.0 ± 2.1 Cells × 10^4 | 2.70 ± 0.32 | 2.4 ± 0.43 | 2.56 ± 0.75 | 1.69 ± 0.20 | 2.62 ± 0.47 | 2.3 ± 0.16 | strong positivity to type II collagen | only maintained for longer times (7 and 10 days) in the cells treated with chondroitin
2 | chondroitin sulphate [CS, reference compound] | 7.0 ± 0.5 Cells × 10^4 | 10.0 ± 1.2 Cells × 10^4 | 14.0 ± 1.8 Cells × 10^4 | 18.0 ± 1.6 Cells × 10^4 | 21.8 ± 1.7 Cells × 10^4 | 25.0 ± 2.5 Cells × 10^4 | 2.8 ± 0.75 | 1.25 ± 0.45 | 0.58 ± 0.29 | 0.50 ± 0.01 |  | 0.8 ± 0.45 | strong positivity to type II collagen | 
